Results from the OligoGym collection.
“And” between values parts separate entries of the source, which are not always exact repeats. Identical values can stand only once. After the bases stand the sugars from the 5' end (letter, count) and the backbone: PS all phosphorothioate, else s phosphorothioate and o phosphodiester by linkage. Methylation of C is not given here. e = 2'-O-(2-methoxyethyl) (MOE); k = constrained ethyl (cEt); d = 2'-deoxy (DNA)

Molecular target: SOD1
Conditions: ASO

## TCATAATAAGTGCCATA (sugars e2 k2 d9 k2 e2, PS)
HepG2, 5 µM
  target mRNA inhibition: 34%

## ACTTTAAAGCAACTCTGAAA (sugars e5 d10 e5, PS)
HepG2, 5 µM
  target mRNA inhibition: 0%

## TGATGCAATGGTCTCCTGAG (sugars e5 d10 e5, PS)
HepG2, 5 µM
  target mRNA inhibition: 1%

## AATAGCCTCATAATAAG (sugars e2 k2 d9 k2 e2, PS)
HepG2, 5 µM
  target mRNA inhibition: 25%

## GCGACTACTTTATAGGC (sugars e3 k2 d7 k2 e3, PS)
HepG2, 3 µM
  target mRNA inhibition: 12%

## ACCTGCACTGGTACAGC (sugars e3 k2 d7 k2 e3, PS)
HepG2, 3 µM
  target mRNA inhibition: 12%

## TACAAATCTTCCAAGTG (sugars e3 k2 d7 k2 e3, PS)
HepG2, 3 µM
  target mRNA inhibition: 17%

## TCTCACTACAGGTACTT (sugars e2 k2 d8 k2 e3, PS)
HepG2, 5 µM
  target mRNA inhibition: 42%

## ATAACTCGCTAGGCCACGCC (sugars e5 d10 e5, PS)
HepG2, 4 µM
  target mRNA inhibition: 12%

## CTTCTGCTCGAAATTGATGA (sugars e5 d10 e5, PS)
HepG2, 4 µM
  target mRNA inhibition: 11%

## ATCTGTGATTTAAGTCT (sugars e2 k2 d9 k2 e2, PS)
HepG2, 5 µM
  target mRNA inhibition: 37%

## AATAAGTGCCATACAGG (sugars e2 k2 d9 k2 e2, PS)
HepG2, 5 µM
  target mRNA inhibition: 36%

## TCCACCTTTGCCCAAGT (sugars e3 k2 d7 k2 e3, PS)
HepG2, 3 µM
  target mRNA inhibition: 88%

## AGACATTTTAACTGAGT (sugars e2 k2 d8 k2 e3, PS)
HepG2, 5 µM
  target mRNA inhibition: 46%

## ATGGAATCCATGCAGGC (sugars e3 k2 d7 k2 e3, PS)
HepG2, 3 µM
  target mRNA inhibition: 9%

## TGCCTCTCTTCATCCTTTGG (sugars e5 d10 e5, PS)
HepG2, 3 µM
  target mRNA inhibition: 32%

## CCTGCACTGGTACAGCC (sugars e3 k2 d7 k2 e3, PS)
HepG2, 3 µM
  target mRNA inhibition: 17%

## CCAATTACACCACAAGC (sugars e3 k2 d7 k2 e3, PS)
HepG2, 3 µM
  target mRNA inhibition: 29%

## GTGAGGACCTGCACTGG (sugars e3 k2 d7 k2 e3, PS)
HepG2, 3 µM
  target mRNA inhibition: 21%

## GGCGATCCCAATTACACCAC (sugars e6 d9 e5, linkages s1 o4 s10 o2 s2)
A431, 0.062 µM
  target mRNA inhibition: 0%
A431, 0.185 µM
  target mRNA inhibition: 0%
A431, 0.556 µM
  target mRNA inhibition: 0%
A431, 1.667 µM
  target mRNA inhibition: 0%
A431, 5 µM
  target mRNA inhibition: 4%
A431, 15 µM
  target mRNA inhibition: 0%
SH-SY5Y, 0.062 µM
  target mRNA inhibition: 0%
SH-SY5Y, 0.185 µM
  target mRNA inhibition: 3%
SH-SY5Y, 0.556 µM
  target mRNA inhibition: 20%
SH-SY5Y, 1.667 µM
  target mRNA inhibition: 38%
SH-SY5Y, 5 µM
  target mRNA inhibition: 61%
SH-SY5Y, 15 µM
  target mRNA inhibition: 84%

## GTCATCTGCTTTTTCAT (sugars e3 k2 d7 k2 e3, PS)
HepG2, 3 µM
  target mRNA inhibition: 74%

## CCAAGGGAATGTTTATT (sugars e2 k2 d8 k2 e3, PS)
HepG2, 4 µM
  target mRNA inhibition: 57%

## TTGGATTCTTTTAATAG (sugars e2 k2 d9 k2 e2, PS)
HepG2, 5 µM
  target mRNA inhibition: 8%

## AGTGCCATACAGGGTTT (sugars e2 k2 d9 k2 e2, PS)
HepG2, 5 µM
  target mRNA inhibition: 27%

## GTACTTTAAAGCAACTCTGA (sugars e5 d10 e5, PS)
HepG2, 5 µM
  target mRNA inhibition: 22%

## GTTTCTCACTACAGGTA (sugars e2 k2 d8 k2 e3, PS)
HepG2, 5 µM
  target mRNA inhibition: 25%

## GCTTCCCCACACCTTCACTG (sugars e5 d10 e5, PS)
HepG2, 3 µM
  target mRNA inhibition: 50%

## ATCCATGCAGGCCTTCA (sugars e3 k2 d7 k2 e3, PS)
HepG2, 3 µM
  target mRNA inhibition: 27%

## AGTTTCTCACTACAGGT (sugars e2 k2 d8 k2 e3, PS)
HepG2, 5 µM
  target mRNA inhibition: 33%

## TTATTCACAGGCTTGAA (sugars e2 k2 d8 k2 e3, PS)
HepG2, 5 µM
  target mRNA inhibition: 26%

## AGATTACAGTGTTTAAT (sugars e2 k2 d9 k2 e2, PS)
HepG2, 0.1875 µM
  target mRNA inhibition: 28%
HepG2, 0.75 µM
  target mRNA inhibition: 41%
HepG2, 3 µM
  target mRNA inhibition: 63%
HepG2, 5 µM
  target mRNA inhibition: 63%
HepG2, 12 µM
  target mRNA inhibition: 71%

## AGGAGACTACGACGCAAACC (sugars e5 d10 e5, PS)
HepG2, 4 µM
  target mRNA inhibition: 35%

## GAATCCATGCAGGCCTT (sugars e3 k2 d7 k2 e3, PS)
HepG2, 3 µM
  target mRNA inhibition: 9%

## ATTTAAGTCTGGCAAAATAC (sugars e5 d10 e5, PS)
HepG2, 5 µM
  target mRNA inhibition: 16%

## AGACACATCGGCCACAC (sugars e3 k2 d7 k2 e3, PS)
HepG2, 3 µM
  target mRNA inhibition: 21%

## AAGTTTAATACCCATCT (sugars e3 k2 d7 k2 e3, PS)
HepG2, 3 µM
  target mRNA inhibition: 12%

## ATCAGTTTCTCACTACAGGT (sugars e5 d10 e5, PS)
HepG2, 5 µM
  target mRNA inhibition: 22%

## CCACACCATCTTTGTCAGCA (sugars e5 d10 e5, PS)
HepG2, 5 µM
  target mRNA inhibition: 39% and 20%

## AGTGCCATACAGGGTTT (sugars e3 k2 d7 k2 e3, PS)
HepG2, 3 µM
  target mRNA inhibition: 9%

## GCCTCATAATAAGTGCC (sugars e2 k2 d8 k2 e3, PS)
HepG2, 5 µM
  target mRNA inhibition: 41%

## TTTTCATGGACCACCAGTGT (sugars e5 d10 e5, PS)
HepG2, 5 µM
  target mRNA inhibition: 17%

## AATTCTGACAAGTTTAA (sugars e3 k2 d7 k2 e3, PS)
HepG2, 3 µM
  target mRNA inhibition: 15%

## AGGATACATTTCTACAG (sugars e2 k2 d9 k2 e2, PS)
HepG2, 0.1875 µM
  target mRNA inhibition: 9%
HepG2, 0.75 µM
  target mRNA inhibition: 52%
HepG2, 3 µM
  target mRNA inhibition: 81%
HepG2, 4 µM
  target mRNA inhibition: 77%
HepG2, 12 µM
  target mRNA inhibition: 95%

## TTATTGGGCGATCCCAA (sugars e2 k2 d8 k2 e3, PS)
HepG2, 4 µM
  target mRNA inhibition: 41%

## GCCATACAGGGTTTTTA (sugars e2 k2 d8 k2 e3, PS)
HepG2, 5 µM
  target mRNA inhibition: 13%

## TTAGTTTGAATTTGGAT (sugars e2 k2 d9 k2 e2, PS)
HepG2, 5 µM
  target mRNA inhibition: 16%
